The assay relates to Diabetic Rats. As to the kind of experiment: Blood glucose reduction in streptozotocin-diabetic rats after oral gavage. The format is in vivo. To be noted: diabetic female Wistar rats, oral gavage 0.5 mL of 20 IU/mL insulin. As for the experimental part: Female Wistar rats (200 g) were housed at room temperature with 12 h light/dark cycle. All animals had ad libitum access to a standard chow diet and water except wherever indicated. The rats were allowed to acclimatize for a period of 7 days in the new environment before initiation of the experiment. After randomization into groups of 4, each rat was marked and followed individually throughout the study. All rats were fasted for 1 hour. Streptozotocin obtained from Sigma (98% HPLC) was administered by IV injection at a dose of 55-65 mg/kg in 0.1M citrate buffer (pH 4.5) followed by an additional 1 hour fast. Blood was collected daily from the tail and blood glucose levels were measured using an Accu-Chek® (Compact Plus-Roche) blood glucose monitor. When all animals in the group had achieved a blood glucose level of >250 mg/dl (5 days) the insulin metabolism phase was begun. All animals were fasted for 1 hour and a blood glucose measurement taken (T=0). Groups of rats were dosed by oral gavage with 0.5 mL of an aqueous preparation of insulin nanoparticles (containing 20 IU/mL of insulin) of example 9, or 0.5 mL of an aqueous solution of bovine insulin (20 IU/mL). The animals were then fasted for another hour and blood glucose levels were measured at 1, 4, 8 and 24 hours after dosing.

Take “plain insulin formulation: aqueous solution of bovine insulin (20 IU/mL), oral comparator”: the “increase in blood glucose level (compared to T=0)” value by setting is: (8 hours after dosing) 1%; (24 hours after dosing) 21%.

Source of the values: patent US20120231069A1, “Targeted Nanocarrier Systems for Delivery of Actives Across Biological Membranes” (Access Pharmaceuticals, Inc., priority 2011, published 2012).
